Reference: the CATMoS acute toxicity set (Mansouri et al. 2021)

Assay: GHS categories as the set defines them, by LD50: 1 up to 5, 2 up to 50, 3 up to 300, 4 up to 2000, 5 above 2000 mg/kg
Conditions: rat; in vivo; po
Description: […]The data set underlying the modeling effort for this project was initially compiled by NICEATM and U.S. EPA’s CCTE. Briefly, LD50 data were collected from rat acute oral systemic toxicity tests, including limit tests, ranges/confidence intervals, and discrete LD50 values. The full data set included 21,200 LD50 entries for 15,688 substances. […] Data were reviewed to ensure that LD50 values with obvious errors in the extracted data such as unit conversion errors (e.g., comma and decimal separator misplacements) were either fixed or removed. After this review, 16,209 LD50 values remained. Many of the chemicals represented had multiple LD50 entries, requiring that a single representative value per Chemical Abstracts Service Registry Number (CASRN) identifier be defined to facilitate modeling efforts. Based on ATWG feedback and to define the representative LD50 as a protective value while accounting for the distribution across multiple LD50s, the median of the lowest quartile was computed using only discrete LD50 values (omitting limit test data and range and confidence interval data). A detailed summary of the data compilation is available online on the NICEATM webpage dedicated to the collaborative modeling project (NTP 2020).
[…][…] For categorical designations, limit test and range/confidence interval LD50 data were integrated wherever possible. As such, the number of chemicals with end point values/calls varies across the modeling end points (Table 3) based on whether chemicals had representative LD50 values and/or other data. If a chemical had both, the representative value was used to determine categorical calls rather than limit test data. Some data were useable only for certain end points and categories depending on the thresholds. For example, ranges that spanned multiple hazard categories were considered only for the binary (very toxic/nontoxic) end points and omitted from rendering a determination for hazard category assignment.
[…]The final data set comprising 11,992 chemicals was split into training and evaluation sets […], respectively. This process was performed semirandomly by ordering chemicals based on the five end points (categorical and continuous LD50 values) and partitioning every fourth record into the evaluation set accordingly. This approach was taken to ensure an equivalent distribution of the LD50 values and the different hazard categories between the training and the evaluation sets without supervised sampling of the chemicals based on structures (Figure 1A). The sources of the chemical structures were also kept equivalent between the two sets, with chemical structures obtained from DSSTox, being the highest quality, representing over 75% of each set (Figure 1B).

SMILES	GHS category
CCCc1c(Cc2ccc(-c3ccccc3-c3nn[nH]n3)cc2)c(=O)nc2nc(N)[nH]n12	4
C[C@@H]1[C@H](O)[C@@H](C)C=CC=CC=CC=CC=CC=CC=C[C@H](O[C@@H]2O[C@H](C)[C@@H](O)[C@H](N)[C@@H]2O)C[C@@H]2O[C@](O)(C[C@@H](O)C[C@@H](O)[C@H](O)CC[C@@H](O)C[C@@H](O)CC(=O)O[C@H]1C)C[C@H](O)[C@H]2C(=O)O	5
CC1=CC2[C@@H](C(=O)O1)C2(C)C (some centres undefined)	5
COC(=O)[C@]1(C)CCC[C@@]2(C)[C@H]1CC=C1C=C(C(C)C)CC[C@@H]12	5
CSCC[C@H](NC(=O)CCSC(=O)c1ccccc1)C(=O)OC(C)C	5
Nc1cc(C(=O)O)ccc1Cl	5
Cc1c([N+](=O)[O-])c(C)c([N+](=O)[O-])c(C(C)(C)C)c1[N+](=O)[O-]	5
CC(=O)C1(Cl)CC1	4
CC(=O)CC(=O)Nc1ccc(S(=O)(=O)O)cc1	5
COC(=O)CBr	3
O=C1C=CC(=O)N1c1ccc(Cc2ccc(N3C(=O)C=CC3=O)cc2)cc1	5
CC(C)(C)c1cc(CCC(=O)OCC(COC(=O)CCc2cc(C(C)(C)C)c(O)c(C(C)(C)C)c2)(COC(=O)CCc2cc(C(C)(C)C)c(O)c(C(C)(C)C)c2)COC(=O)CCc2cc(C(C)(C)C)c(O)c(C(C)(C)C)c2)cc(C(C)(C)C)c1O	5
O=c1[nH]c(=O)n([C@H]2O[C@H](CO)[C@@H](O)[C@@H]2O)cc1/C=C\Br	5
O=C(OCCCc1ccccc1)c1ccccc1	5
C[Si]1(C)O[Si](C)(C)O[Si](C)(C)O[Si](C)(C)O[Si](C)(C)O1	5
CCCCC(CC)COC(=O)CC(CC(=O)OCC(CC)CCCC)(OC(C)=O)C(=O)OCC(CC)CCCC (centres undefined)	5
CCC(=O)OCCC(C)CCC=C(C)C (centres undefined)	5
CN1c2c(oc(=NC3CCCCC3)n(C3CCCCC3)c2=O)-c2sc(Cl)cc2S1(=O)=O	2
C#CCOc1cc(-n2nc(C(C)(C)C)oc2=O)c(Cl)cc1Cl	5
CC(C)(O)CCC(C)(C)O	5
CC(C)(c1ccc(OP(=O)(Oc2ccccc2)Oc2ccccc2)cc1)c1ccc(OP(=O)(Oc2ccccc2)Oc2ccccc2)cc1	5
CNC(=O)Oc1cccc2c1OC(C)(C(C)(C)C)O2 (centres undefined)	4
CCOC(=O)c1ccc(NC(=O)CC)cc1NC(=O)c1ccc(C(=O)O)cc1	5
CCCCCCCCCCCCCC(=O)O	5
C=C(C)C1CCC(C)C(OC(C)=O)C1 (centres undefined)	5

SMILES	GHS category
O=c1[nH]n(-c2cccc(C(F)(F)F)c2)c2ncccc12	4
COc1ccc2c(c1)CCN(c1ccccc1)C2c1ccc(OCc2ccccc2)cc1 (centres undefined)	4
N[C@@H](C(=O)N[C@@H]1C(=O)N2C(C(=O)O)=C(Cl)CS[C@H]12)c1ccccc1	5
CC(=O)Oc1ccc(C(c2ccc(OS(=O)(=O)O)cc2)c2ccccn2)cc1 (centres undefined)	5
CCCCCCC(C(C)=O)C(=O)OCC (centres undefined)	5
CN1C2=CC(=O)C(=NNC(N)=O)C=C2CC1S(=O)(=O)O (centres undefined)	5
C[SiH](C)O[SiH](C)C	5
C=C(C)C(CC=C(C)C)COC(=O)C=C(C)C (centres undefined)	5
CNC(=O)C(=NNc1cc([N+](=O)[O-])ccc1OC)C(C)=O	5
COC(=O)C(O)(c1cccs1)c1cccs1	5
CCN1C(=O)CCc2c(OCC(O)CN3CCC(Cc4ccccc4)CC3)cccc21 (centres undefined)	4
OC(OCC(COC(O)C(Cl)(Cl)Cl)(COC(O)C(Cl)(Cl)Cl)COC(O)C(Cl)(Cl)Cl)C(Cl)(Cl)Cl (centres undefined)	4
CC(=O)OC[C@H]1O[C@@](COC(C)=O)(O[C@H]2O[C@H](COC(C)=O)[C@@H](OC(C)=O)[C@H](OC(C)=O)[C@H]2OC(C)=O)[C@@H](OC(C)=O)[C@@H]1OC(C)=O	5
Cc1ccc2oc(C=Cc3nc4cc(C)ccc4o3)nc2c1	5
CC(C)=C1CC[C@H](C)C2=C(C1)[C@@H](C)CC2	5
CC(=O)C(=O)CC(C)C	5
Brc1cc(Oc2cc(Br)c(Br)c(Br)c2Br)c(Br)c(Br)c1Br	5
COc1cc(OC)c(NC(=O)c2cc3ccccc3cc2O)cc1Cl	5
Cc1ccc(C(N)=O)c(O)c1	5
Nc1ccc(OS(=O)(=O)O)c(C(=O)O)c1	5
CCCCCCCCOc1ccc(-c2ccc(C#N)cc2)cc1	5
OCCN1CNC(=S)NC1	5
Nc1nc(N)nc(NC(=O)NC(=O)c2ccc(Cl)cc2)n1	5
Cn1c(=O)oc2ccc(Cl)cc21	5
CCC(=NOC/C=C/Cl)C1=C(O)CC(C2CCOCC2)CC1=O (centres undefined)	5

SMILES	GHS category
CCC/C=C/COC(=O)CC	5
Nc1nc(COc2ccc(Cl)cc2)nc(NCCc2ccccc2)n1	5
CC(C)C1C(=O)N(c2ccccc2)N(c2ccc(O)cc2)C1=O (centres undefined)	4
CC(C)CCOCCc1ccccc1	5
N#Cc1ccccc1-c1ccc(CBr)cc1	5
O=C1C=CC(=O)N1c1ccc(SSc2ccc(N3C(=O)C=CC3=O)cc2)cc1	5
C=CCCCCCCCCC(=O)NCC(=O)O	5
CC(CO)C1CCCCCCCCCCC1 (centres undefined)	5
CCCOC(=O)c1ccc(O)cc1	5
CC(C)CCC[C@@H](C)[C@H]1CC[C@H]2[C@@H]3CC=C4C[C@@H](O)CC[C@]4(C)[C@H]3CC[C@]12C	5
CCCCCCCCC=O	5
COC(=O)C(C=O)c1ccccc1 (centres undefined)	4
NC(=O)Oc1ccccc1C(=O)Oc1ccc(Cl)cc1Cl	5
O=S(=O)(O)c1cc(-n2ncc(-c3ccccc3)n2)ccc1C=Cc1ccc(-n2ncc(-c3ccccc3)n2)cc1S(=O)(=O)O	5
COc1ccc(N(CCCC(=O)O)C(=O)c2ccc(Cl)cc2)cc1	5
CC(C)(Oc1ccc(Cl)cc1)C(=O)NC(=O)NCN1CCOCC1	5
CN1CC(c2ccno2)CC2c3cccc4[nH]cc(c34)CC21 (centres undefined)	4
CO[Si](CC(C)C)(OC)OC	5
CCCCCCCCCCCCCCCCCCOP(=O)(O)O	5
CCOC1(c2ccco2)CCN(CCc2ccccc2)CC1C (centres undefined)	2
CC/C=C\CCOC(=O)C(C)C	5
CCC(=O)OC1CC2CC1C1CC=CC21 (centres undefined)	5
C=C(C)C(=O)OCCOCCOCCCC	5
COc1ccccc1C(=O)NS(=O)(=O)c1ccc(C(=O)NC2CC2)cc1	5
CCCCCCCC(=O)OCCC	5

SMILES	GHS category
Cc1c(Cl)ccc(OC(C)C(O)=Nc2ccccc2)c1Cl (centres undefined)	5
COc1cc2nc(N3CCC(CN(C)C(=O)c4ccco4)CC3)nc(N)c2cc1OC	4
Cc1ccc(OC(N)=O)c(C(=O)Oc2ccccc2)c1	5
C=C(C)CCCC(C)CCOC(C)=O (centres undefined)	5
CCCCCCCCCCCCCCCNCCCCCCCCCCCCCCC	5
BrC1CC(Br)CC(Br)CC(Br)CC(Br)CC(Br)C1 (mixture of isomers)	5
CCOCCOCCOC(=O)C1CCC(C(=O)OCCOCCOCC)CC1 (centres undefined)	5
O=C(CCn1cnc2c(=O)nc[nH]c21)Nc1ccc(C(=O)O)cc1	5
CC1Oc2cc(C(=O)c3ccccc3)ccc2N(C)C1=O (centres undefined)	5
OC(c1ccc(F)cc1F)c1cccnc1Cl (centres undefined)	5
CCCc1ccc(OCC(=O)N2CCN(C(=O)COc3ccc(CCC)cc3OC)CC2)c(OC)c1	4
CNCC1CCC(N)C(OC2C(N)CC(N)C(OC3OCC(C)(O)C(NC)C3O)C2O)O1 (centres undefined)	5
Cc1nc(Cl)cc(Nc2ncc(C(=O)Nc3c(C)cccc3Cl)s2)n1	5
O=C(O)c1ccccc1SSc1ccccc1C(=O)O	5
COc1ccc(C(=O)c2cccc(C)c2)cc1C	5
Cc1ccc(Cl)cc1NC(=O)c1cc2ccccc2cc1O	5
Cc1ccc2c(-c3ccc(F)cc3)nc(=O)n(C(C)C)c2c1	5
O=C(NC(=O)c1ccccc1Cl)Nc1ccc(OC(F)(F)F)cc1	5
C/C=C/C=C/CCCCCCCO	5
CCNC(=O)CCSCc1nnnn1-c1ccccc1	4
C=CC(C)(CCC=C(C)C)OC=O (centres undefined)	5
O=C(NCC(O)CCl)c1ccc([N+](=O)[O-])cc1 (centres undefined)	3
COCCOC=C1OC2=C(C(=O)N1c1ccccn1)N(C)S(=O)(=O)c1cc(Cl)sc12	2
CCCC(=O)c1ccc(N)c(O)c1	5
